The source made the active and inactive calls. The calls are words filed in the database; no cut-off is given here.
Experiment: Depletion of lysosomal cystine in cystinotic fibroblasts GM00008 at 50 uM after 72 hrs
Format: functional, cell-based
Settings: Fibroblast

Compound	Activity
CCCCCCCCCC(=O)NCCSSCCNC(=O)CCCCCCCCC	Active
NCCS	Active

— ChEMBL document CHEMBL1142295, “A potential new prodrug for the treatment of cystinosis: design, synthesis and in-vitro evaluation” (Bioorg Med Chem Lett, 2008)
